Source: US20240425464A1, “Substituted Monohydrazides as Potent Antifungal Agents” (University of Kentucky Research Foundation, priority 2023, published 2024)
In brackets after ≈: the same amount, converted by molar mass. Like-named read-outs stand apart in the source and are kept apart here.

Assays:
[1] = system: Candida auris strain AR Bank #384 (K); assay: MIC determination by in vitro antifungal assay; type: cell-based
Procedure: (§1) The antifungal agent amphotericin B (AmB) was purchased from VWR (Radnor PA, USA). AmB was dissolved in DMSO at a final concentration of 5 mg/mL and was stored at −20° C., protected from light. Candida albicans American Type Culture Collection (ATCC) 10231 (strain A), C. albicans ATCC 64124 (B), and C. albicans ATCC MYA-2876 (C) were obtained from Utah State University. C. albicans ATCC 90819 (D), C. albicans ATCC MYA-2310 (E), C. albicans ATCC MYA-1237 (F), C. albicans ATCC MYA-1003 (G), Candida glabrata ATCC 2001 (H), Candida krusei ATCC 6258 (I), Candida parapsilosis ATCC 22019 (J), Cryptococcus neoformans ATCC MYA-895 (M), Aspergillus terreus ATCC MYA-3633 (N), and Aspergillus flavus ATCC MYA-3631 (0) were obtained from the American Type Culture Collection (ATCC; Manassas, VA, USA). Aspergillus nidulans ATCC 38163 (P) was obtained from University of Kentucky. Clinically derived Aspergillus fumigatus NRRL 163 (Q), A. fumigatus NRRL 5109 (R), and A. fumigatus NRRL 6113 (S) were obtained from Northern Regional Research Laboratory (NRRL). Candida auris 384 (K), C. auris 390 (L), and fungal strains 381-400 (including 10 C. auris (AR Bank #381-390), 3 Candida duobushaemulonii (AR Bank #391, AR Bank #392, and AR Bank #394), 2 Candida haemulonii (AR Bank #393 and AR Bank #395), 1 Kodameae ohmeri (AR Bank #396), 1 C. krusei (AR Bank #397), 1 Candida lusitaniae (AR Bank #398), and 2 Saccharomyces cerevisiae strains (AR Bank #399 and AR Bank #400)) were part of a larger fungal library from the AR Bank maintained by the Centers for Disease Control and Prevention (CDC; Atlanta, GA, USA). Filamentous fungi and yeasts were cultivated at 35° C. in RPMI 1640 medium (with L-glutamine, without sodium bicarbonate, Sigma-Aldrich, St. Louis, MO) buffered to a pH of 7.0 with 0.165 M morpholinepropanesulfonic acid (MOPS) buffer (Sigma-Aldrich). For cytotoxicity assays, HepG2 and the mouse macrophage cell line J774A.1 were obtained from University of Kentucky. The human embryonic kidney cell line, HEK-293, was bought from the ATCC. Mammalian cells were grown in Dulbecco's Modified Eagle's Medium (DMEM) (from VWR) with 10% fetal bovine serum (FBS) (from VWR) and 1% Pen/Strep (from ATCC). Cell lines were cultured at 37° C. with 5% CO2 and passaged by trypsinization with 0.05% trypsin: 0.53 mM EDTA (from Sigma-Aldrich).
(§2) From the actively growing yeast culture, 100 µL were then transferred to 900 μL of RPMI 1640 medium and re-adjusted to achieve OD600 of 0.12 (˜1×10^6 CFU/mL). The cell suspension was further diluted to achieve 1:100 in RPMI 1640 medium.
(§3) Finally, the activity of these monohydrazides was explored against […] non-Candida strains: Cryptococcus neoformans ATCC MYA-895 (M), Aspergillus terreus ATCC MYA-3633 (N), Aspergillus flavus ATCC MYA-3631 (O), Aspergillus nidulans ATCC 38163 (P), Aspergillus fumigatus NRRL 163 (Q), A. fumigatus NRRL 5109 (R), and A. fumigatus NRRL 6113 (S) (Tables 1A and 1B). The double dilution method was used with concentrations ranging from 0.06 to 31.3 j·tg mL^−1 for monohydrazides 1a-9j, and the commercially available positive antifungal control amphotericin B (AmB).

[2] = system: C. auris strain AR Bank #390 (L); assay: MIC determination by in vitro antifungal assay; type: cell-based, Candida auris
Procedure: as §1, §2, §3

[3] = C. auris AR Bank # 384 (K) (Table 2B)
[4] = strain K = C. auris AR Bank # 0384 (Tables 1A/1B)
[5] = C. auris AR Bank # 390 (L) (Table 2B)
[6] = strain L = C. auris AR Bank # 0390 (Tables 1A/1B)
[7] = Candidozyma auris, C. auris AR Bank # 384 (K) (Table 2B), read-out: MIC
[8] = Candidozyma auris, strain K = C. auris AR Bank # 0384 (Tables 1A/1B), read-out: MIC
[9] = Candidozyma auris, C. auris AR Bank # 390 (L) (Table 2B), read-out: MIC
[10] = Candidozyma auris, strain L = C. auris AR Bank # 0390 (Tables 1A/1B), read-out: MIC
[11] = Candidozyma auris, C. auris AR Bank #384 (K), read-out: MIC
[12] = Candidozyma auris, C. auris AR Bank #390 (L), read-out: MIC

O=C(NNc1ccc(Cl)cc1)c1ncc(F)cc1F [Compound 7e]
MIC [1, 3]: 7.9 μg/mL^−1
MIC [1, 4]: 3.9 μg/mL^−1
MIC [2, 5]: 7.8 μg/mL^−1
MIC [2, 6]: 7.8 μg/mL^−1

COc1ccc(NNC(=O)c2ncc(F)cc2F)cc1 [Compound 7f]
MIC [1, 7]: 0.98 µg/mL (≈ 3.51 µM)
MIC [1, 8]: 3.9 µg/mL (≈ 14 µM)
MIC [2, 9]: 31.3 µg/mL (≈ 112 µM)
MIC [2, 10]: 0.98 µg/mL (≈ 3.51 µM)

O=C(NNc1ccc(F)cc1F)c1ncc(F)cc1F [Compound 7g]
MIC [1, 7]: 0.98 µg/mL (≈ 3.44 µM)
MIC [1, 8]: 7.8 µg/mL (≈ 27.3 µM)
MIC [2, 9]: 7.8 µg/mL (≈ 27.3 µM)
MIC [2, 10]: 1.95 µg/mL (≈ 6.84 µM)

O=C(NNc1cccc(F)c1)c1nc(F)ccc1F [Compound 8a]
MIC [1, 4]: 1.95 μg/mL^−1
MIC [2, 6]: 1.95 μg/mL^−1

COc1cccc(NNC(=O)c2nc(F)ccc2F)c1 [Compound 8c]
MIC [1, 8]: 15.6 µg/mL (≈ 55.9 µM)
MIC [2, 10]: 15.6 µg/mL (≈ 55.9 µM)

O=C(NNc1ccc(F)cc1)c1nc(F)ccc1F [Compound 8d]
MIC [1, 7]: 0.49 µg/mL (≈ 1.83 µM)
MIC [1, 8]: 1.95 µg/mL (≈ 7.3 µM)
MIC [2, 9]: 1.95 µg/mL (≈ 7.3 µM)
MIC [2, 10]: 0.98 µg/mL (≈ 3.67 µM)

O=C(NNc1ccc(Cl)cc1)c1nc(F)ccc1F [Compound 8e]
MIC [1, 3]: 7.8 μg/mL^−1
MIC [1, 4]: 7.8 μg/mL^−1
MIC [2, 5]: 7.8 μg/mL^−1
MIC [2, 6]: 7.8 μg/mL^−1

COc1ccc(NNC(=O)c2nc(F)ccc2F)cc1 [Compound 8f]
MIC [1, 7]: 0.98 µg/mL (≈ 3.51 µM)
MIC [1, 8]: 3.9 µg/mL (≈ 14 µM)
MIC [2, 9]: 31.3 µg/mL (≈ 112 µM)
MIC [2, 10]: 0.98 µg/mL (≈ 3.51 µM)

O=C(NNc1ccc(F)cc1F)c1nc(F)ccc1F [Compound 8g]
MIC [1, 7]: 0.98 µg/mL (≈ 3.44 µM)
MIC [1, 8]: 3.9 µg/mL (≈ 13.7 µM)
MIC [2, 9]: 31.3 µg/mL (≈ 110 µM)
MIC [2, 10]: 1.95 µg/mL (≈ 6.84 µM)

O=C(NNc1cccc(F)c1)c1cnccn1 [Compound 9a]
MIC [1, 4]: 0.98 μg/mL^−1
MIC [2, 6]: 0.98 μg/mL^−1

O=C(NNc1cccc(Cl)c1)c1cnccn1 [Compound 9b]
MIC [1, 11]: 0.98 µg/mL (≈ 3.94 µM)
MIC [1, 8]: 1.95 µg/mL (≈ 7.84 µM)
MIC [2, 12]: 0.49 µg/mL (≈ 1.97 µM)
MIC [2, 10]: 0.98 µg/mL (≈ 3.94 µM)

COc1cccc(NNC(=O)c2cnccn2)c1 [Compound 9c]
MIC [1, 11]: 1.95 µg/mL (≈ 7.98 µM)
MIC [1, 8]: 1.95 µg/mL (≈ 7.98 µM)
MIC [2, 12]: 0.98 µg/mL (≈ 4.01 µM)
MIC [2, 10]: 0.98 µg/mL (≈ 4.01 µM)

O=C(NNc1ccc(F)cc1)c1cnccn1 [Compound 9d]
MIC [1, 8]: 0.49 µg/mL (≈ 2.11 µM)
MIC [2, 10]: 0.98 µg/mL (≈ 4.22 µM)

O=C(NNc1ccc(Cl)cc1)c1cnccn1 [Compound 9e]
MIC ([1]; C. auris AR Bank #384 (K)): 1.95 μg/mL^−1
MIC [1, 4]: 1.95 μg/mL^−1
MIC ([2]; C. auris AR Bank #390 (L)): 3.9 μg/mL^−1
MIC [2, 6]: 3.9 μg/mL^−1

COc1ccc(NNC(=O)c2cnccn2)cc1 [Compound 9f]
MIC [1, 11]: 0.98 µg/mL (≈ 4.01 µM)
MIC [1, 8]: 0.49 µg/mL (≈ 2.01 µM)
MIC [2, 12]: 0.98 µg/mL (≈ 4.01 µM)
MIC [2, 10]: 0.49 µg/mL (≈ 2.01 µM)

O=C(NNc1ccc(F)cc1F)c1cnccn1 [Compound 9g]
MIC [1, 11]: 3.9 µg/mL (≈ 15.6 µM)
MIC [1, 8]: 3.9 µg/mL (≈ 15.6 µM)
MIC [2, 12]: 0.98 µg/mL (≈ 3.92 µM)
MIC [2, 10]: 0.98 µg/mL (≈ 3.92 µM)

O=C(NNc1cc(F)ccc1F)c1cnccn1 [Compound 9h]
MIC [1, 8]: 0.49 µg/mL (≈ 1.96 µM)
MIC [2, 10]: 1.95 µg/mL (≈ 7.79 µM)

O=C(NNc1cc(F)cc(F)c1)c1cnccn1 [Compound 9i]
MIC [1, 8]: 0.49 µg/mL (≈ 1.96 µM)
MIC [2, 10]: 1.95 µg/mL (≈ 7.79 µM)

O=C(NNc1cc(Cl)cc(Cl)c1)c1cnccn1 [Compound 9j]
MIC [1, 8]: 15.6 µg/mL (≈ 55.1 µM)
MIC [2, 10]: 7.8 µg/mL (≈ 27.6 µM)
